Laboratory results: US9212182B2, “Bicyclic sulfonamide compounds as sodium channel inhibitors” (AMGEN INC., priority 2013, dated 2015)

Target: Nav 1.7 (Homo sapiens (Human), UniProt Q15858)
Experiment: in-vitro Nav 1.7 PX (IC50)
Type: cell-based
Conditions: in-vitro Nav 1.7 PX data

Chain of Nav 1.7 (Q15858 whole entry): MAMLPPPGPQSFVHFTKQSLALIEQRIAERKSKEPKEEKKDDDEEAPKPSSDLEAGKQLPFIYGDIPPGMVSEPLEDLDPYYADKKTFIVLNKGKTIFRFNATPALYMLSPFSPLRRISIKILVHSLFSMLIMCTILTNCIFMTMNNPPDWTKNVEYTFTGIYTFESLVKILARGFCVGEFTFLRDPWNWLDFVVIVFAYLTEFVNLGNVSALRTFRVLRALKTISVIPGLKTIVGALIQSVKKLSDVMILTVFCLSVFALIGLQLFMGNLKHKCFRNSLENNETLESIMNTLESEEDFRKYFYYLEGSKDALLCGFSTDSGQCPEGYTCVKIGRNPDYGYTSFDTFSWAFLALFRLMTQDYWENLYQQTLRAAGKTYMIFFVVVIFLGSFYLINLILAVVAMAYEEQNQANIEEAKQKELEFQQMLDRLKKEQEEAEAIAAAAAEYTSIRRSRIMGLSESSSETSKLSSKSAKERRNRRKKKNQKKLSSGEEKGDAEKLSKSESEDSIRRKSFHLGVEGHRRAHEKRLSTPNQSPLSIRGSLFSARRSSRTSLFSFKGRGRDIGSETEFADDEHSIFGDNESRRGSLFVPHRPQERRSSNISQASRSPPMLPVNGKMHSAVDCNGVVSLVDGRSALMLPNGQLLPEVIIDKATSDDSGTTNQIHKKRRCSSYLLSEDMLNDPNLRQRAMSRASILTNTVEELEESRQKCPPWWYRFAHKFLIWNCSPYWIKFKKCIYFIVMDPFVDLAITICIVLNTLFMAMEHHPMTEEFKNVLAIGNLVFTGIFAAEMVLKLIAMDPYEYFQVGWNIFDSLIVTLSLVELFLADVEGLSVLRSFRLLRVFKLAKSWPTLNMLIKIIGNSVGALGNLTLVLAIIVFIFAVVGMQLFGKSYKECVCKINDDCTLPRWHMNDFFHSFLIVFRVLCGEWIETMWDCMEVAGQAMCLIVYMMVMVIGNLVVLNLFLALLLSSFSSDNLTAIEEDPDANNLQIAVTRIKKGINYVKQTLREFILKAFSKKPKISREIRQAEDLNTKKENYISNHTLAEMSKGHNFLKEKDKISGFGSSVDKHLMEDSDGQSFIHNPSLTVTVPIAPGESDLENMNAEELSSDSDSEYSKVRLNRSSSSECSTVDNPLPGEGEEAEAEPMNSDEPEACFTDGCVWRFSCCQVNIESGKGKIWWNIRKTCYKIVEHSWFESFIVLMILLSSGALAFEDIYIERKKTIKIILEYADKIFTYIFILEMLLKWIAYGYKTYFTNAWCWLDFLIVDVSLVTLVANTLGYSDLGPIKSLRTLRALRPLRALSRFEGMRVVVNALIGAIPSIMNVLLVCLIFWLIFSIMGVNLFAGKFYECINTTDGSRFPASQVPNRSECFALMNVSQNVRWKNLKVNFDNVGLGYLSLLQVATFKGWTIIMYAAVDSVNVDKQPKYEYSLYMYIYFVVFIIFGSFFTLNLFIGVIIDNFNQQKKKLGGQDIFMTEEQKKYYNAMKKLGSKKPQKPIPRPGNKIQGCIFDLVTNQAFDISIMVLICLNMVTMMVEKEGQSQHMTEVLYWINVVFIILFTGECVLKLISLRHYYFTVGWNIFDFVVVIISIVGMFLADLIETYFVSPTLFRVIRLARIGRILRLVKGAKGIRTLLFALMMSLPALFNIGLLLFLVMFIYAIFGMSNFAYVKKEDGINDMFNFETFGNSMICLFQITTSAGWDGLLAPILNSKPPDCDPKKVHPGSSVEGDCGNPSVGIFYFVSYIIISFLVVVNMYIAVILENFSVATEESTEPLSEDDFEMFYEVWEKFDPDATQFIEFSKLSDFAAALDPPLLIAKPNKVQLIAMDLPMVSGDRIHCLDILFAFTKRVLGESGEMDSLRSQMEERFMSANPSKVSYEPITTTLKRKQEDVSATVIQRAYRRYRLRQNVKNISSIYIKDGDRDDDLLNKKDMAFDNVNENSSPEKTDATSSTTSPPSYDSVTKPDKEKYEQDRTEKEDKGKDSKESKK

IC50 [nM] | SMILES
178 | COc1ccc(-c2ccc(F)cc2F)cc1-n1c(=O)ccc2cc(S(=O)(=O)Nc3ccon3)ccc21 [Example 837, 1-(2′,4′-difluoro-4-methoxy-3-biphenylyl)-N-3-isoxazolyl-2-oxo-1,2-dihydro-6-quinolinesulfonamide]
69 | COc1cc(F)cc(-c2ccc(OC)c(-n3c(=O)ccc4cc(S(=O)(=O)Nc5ccon5)ccc43)c2)c1 [Example 838, 1-(3′-fluoro-4,5′-dimethoxy-3-biphenylyl)-N-3-isoxazolyl-2-oxo-1,2-dihydro-6-quinolinesulfonamide]
113 | COc1ccc(-c2ccc(F)c(F)c2)cc1-n1c(=O)ccc2cc(S(=O)(=O)Nc3ccon3)ccc21 [Example 839, 1-(3′,4′-difluoro-4-methoxy-3-biphenylyl)-N-3-isoxazolyl-2-oxo-1,2-dihydro-6-quinolinesulfonamide]
163 | COc1ccc(-c2cc(F)ccc2F)cc1-n1c(=O)ccc2cc(S(=O)(=O)Nc3ccon3)ccc21 [Example 840, 1-(2′,5′-difluoro-4-methoxy-3-biphenylyl)-N-3-isoxazolyl-2-oxo-1,2-dihydro-6-quinolinesulfonamide]
27 | COc1ccc(-c2cccc(Cl)c2)cc1-n1c(=O)ccc2cc(S(=O)(=O)Nc3ccon3)ccc21 [Example 841, 1-(3′-chloro-4-methoxy-3-biphenylyl)-N-3-isoxazolyl-2-oxo-1,2-dihydro-6-quinolinesulfonamide]
72 | COc1ccc(-c2ccccc2Cl)cc1-n1c(=O)ccc2cc(S(=O)(=O)Nc3ccon3)ccc21 [Example 842, 1-(2′-chloro-4-methoxy-3-biphenylyl)-N-3-isoxazolyl-2-oxo-1,2-dihydro-6-quinolinesulfonamide]
23 | COc1ccc(-c2ccc(C(F)(F)F)cc2)cc1-n1c(=O)ccc2cc(S(=O)(=O)Nc3ccon3)ccc21 [Example 843, N-3-isoxazolyl-1-(4-methoxy-4′-(trifluoromethyl)-3-biphenylyl)-2-oxo-1,2-dihydro-6-quinolinesulfonamide]
215 | COc1ccc(-c2ccc(F)cc2)cc1-n1c(=O)ccc2cc(S(=O)(=O)Nc3ccon3)ccc21 [Example 844, 1-(4′-fluoro-4-methoxy-3-biphenylyl)-N-3-isoxazolyl-2-oxo-1,2-dihydro-6-quinolinesulfonamide]
57 | COc1ccc(-c2ccc(Cl)cc2)cc1-n1c(=O)ccc2cc(S(=O)(=O)Nc3ccon3)ccc21 [Example 845, 1-(4′-chloro-4-methoxy-3-biphenylyl)-N-3-isoxazolyl-2-oxo-1,2-dihydro-6-quinolinesulfonamide]
25 | COc1ccc(-c2ccc(Cl)c(C)c2)cc1-n1c(=O)ccc2cc(S(=O)(=O)Nc3ccon3)ccc21 [Example 846, 1-(4′-chloro-4-methoxy-3′-methyl-3-biphenylyl)-N-3-isoxazolyl-2-oxo-1,2-dihydro-6-quinolinesulfonamide]
403 | COc1cccc(-c2ccc(OC)c(-n3c(=O)ccc4cc(S(=O)(=O)Nc5ccon5)ccc43)c2)c1 [Example 847, 1-(3′,4-dimethoxy-3-biphenylyl)-N-3-isoxazolyl-2-oxo-1,2-dihydro-6-quinolinesulfonamide]
118 | COc1ccc(-c2cccc(F)c2F)cc1-n1c(=O)ccc2cc(S(=O)(=O)Nc3ccon3)ccc21 [Example 848, 1-(2′,3′-difluoro-4-methoxy-3-biphenylyl)-N-3-isoxazolyl-2-oxo-1,2-dihydro-6-quinolinesulfonamide]
141 | COc1ccc(-c2ccccc2C(F)(F)F)cc1-n1c(=O)ccc2cc(S(=O)(=O)Nc3ccon3)ccc21 [Example 850, N-3-isoxazolyl-1-(4-methoxy-2′-(trifluoromethyl)-3-biphenylyl)-2-oxo-1,2-dihydro-6-quinolinesulfonamide]
371 | COc1ccc(Br)cc1-n1c(=O)ccc2cc(S(=O)(=O)Nc3ccon3)ccc21 [Example 851, 1-(5-bromo-2-methoxyphenyl)-N-3-isoxazolyl-2-oxo-1,2-dihydro-6-quinolinesulfonamide]
22 | COc1ccc(-c2cccc(Cl)c2)cc1-n1c(=O)ccc2cc(S(=O)(=O)Nc3ccon3)ccc21 [Example 852, 1-(3′-chloro-4-methoxy-3-biphenylyl)-N-3-isoxazolyl-2-oxo-1,2-dihydro-6-quinolinesulfonamide]
60 | COc1cc(F)cc(-c2ccc(OC)c(-n3c(=O)ccc4cc(S(=O)(=O)Nc5ccon5)ccc43)c2)c1 [Example 853, 1-(3′-fluoro-4,5′-dimethoxy-3-biphenylyl)-N-3-isoxazolyl-2-oxo-1,2-dihydro-6-quinolinesulfonamide]
35 | COc1ccc(-c2ccc(C(F)(F)F)cc2)cc1-n1c(=O)ccc2cc(S(=O)(=O)Nc3ccon3)ccc21 [Example 856, N-3-isoxazolyl-1-(4-methoxy-4′-(trifluoromethyl)-3-biphenylyl)-2-oxo-1,2-dihydro-6-quinolinesulfonamide]

IC50 [nM] | SMILES
20 | COc1ccc(-c2ccc(Cl)cc2)cc1-n1c(=O)ccc2cc(S(=O)(=O)Nc3ccon3)ccc21 [Example 857, 1-(4′-chloro-4-methoxy-3-biphenylyl)-N-3-isoxazolyl-2-oxo-1,2-dihydro-6-quinolinesulfonamide]
25 | COc1ccc(-c2cc(F)cc(Cl)c2)cc1-n1c(=O)ccc2cc(S(=O)(=O)Nc3ccon3)ccc21 [Example 858, 1-(3′-chloro-5′-fluoro-4-methoxy-3-biphenylyl)-N-3-isoxazolyl-2-oxo-1,2-dihydro-6-quinolinesulfonamide]
675 | COc1ccc(-c2cc(F)cc(Cl)c2)cc1-n1c(=O)ccc2cc(S(=O)(=O)Nc3ccon3)ccc21 [Example 859, 1-(3′-chloro-5′-fluoro-4-methoxy-3-biphenylyl)-N-3-isoxazolyl-2-oxo-1,2-dihydro-6-quinolinesulfonamide]
251 | COc1ccc(-c2cc(F)cc(Cl)c2)cc1-n1c(=O)ccc2cc(S(=O)(=O)Nc3cnccn3)ccc21 [Example 860, 1-(3′-chloro-5′-fluoro-4-methoxy-3-biphenylyl)-2-oxo-N-2-pyrazinyl-1,2-dihydro-6-quinolinesulfonamide]
38 | COc1ccc(-c2cc(F)cc(Cl)c2)cc1-n1c(=O)ccc2cc(S(=O)(=O)Nc3cccnn3)ccc21 [Example 861, 1-(3′-chloro-5′-fluoro-4-methoxy-3-biphenylyl)-2-oxo-N-3-pyridazinyl-1,2-dihydro-6-quinolinesulfonamide]
43 | COc1ccc(-c2cc(F)cc(Cl)c2)cc1-n1c(=O)ccc2cc(S(=O)(=O)Nc3ncco3)ccc21 [Example 864, 1-(3′-chloro-5′-fluoro-4-methoxy-3-biphenylyl)-N-1,3-oxazol-2-yl-2-oxo-1,2-dihydro-6-quinolinesulfonamide]
53 | COc1ccc(-c2cc(F)cc(F)c2)cc1-n1c(=O)ccc2cc(S(=O)(=O)Nc3ccon3)ccc21 [Example 865, 1-(3′,5′-difluoro-4-methoxy-3-biphenylyl)-N-3-isoxazolyl-2-oxo-1,2-dihydro-6-quinolinesulfonamide]
16 | COc1ccc(-c2cc(C)cc(Cl)c2)cc1-n1c(=O)ccc2cc(S(=O)(=O)Nc3ccon3)ccc21 [Example 867, 1-(3′-chloro-4-methoxy-5′-methyl-3-biphenylyl)-N-3-isoxazolyl-2-oxo-1,2-dihydro-6-quinolinesulfonamide]
23 | COc1cc(-c2ccc(OC)c(-n3c(=O)ccc4cc(S(=O)(=O)Nc5ccon5)ccc43)c2)ccc1Cl [Example 870, 1-(4′-chloro-3′,4-dimethoxy-3-biphenylyl)-N-3-isoxazolyl-2-oxo-1,2-dihydro-6-quinolinesulfonamide]
44 | COc1cc(-c2ccc(Cl)c(C#N)c2)c(F)cc1-n1c(=O)ccc2cc(S(=O)(=O)Nc3ncccn3)ccc21 [Example 871, 1-(4′-chloro-3′-cyano-2-fluoro-5-methoxy-4-biphenylyl)-2-oxo-N-2-pyrimidinyl-1,2-dihydro-6-quinolinesulfonamide]
11600 | COc1ccc(-c2ccc(Cl)c(C)c2)cc1-n1c(=O)ccc2cc(S(=O)(=O)Nc3ccon3)ccc21 [Example 872, 1-(4′-chloro-4-methoxy-3′-methyl-3-biphenylyl)-N-3-isoxazolyl-2-oxo-1,2-dihydro-6-quinolinesulfonamide]
33 | COc1ccc(-c2ccc(Cl)c(F)c2)cc1-n1c(=O)ccc2cc(S(=O)(=O)Nc3ccon3)ccc21 [Example 874, 1-(4′-chloro-3′-fluoro-4-methoxy-3-biphenylyl)-N-3-isoxazolyl-2-oxo-1,2-dihydro-6-quinolinesulfonamide]
15 | COc1ccc(-c2ccc(Cl)c(C)c2)cc1-n1c(=O)ccc2cc(S(=O)(=O)Nc3ccon3)ccc21 [Example 875, 1-(4′-chloro-4-methoxy-3′-methyl-3-biphenylyl)-N-3-isoxazolyl-2-oxo-1,2-dihydro-6-quinolinesulfonamide]
206 | COc1ccc(-c2cc(F)cc(Cl)c2)cc1-n1c(=O)ccc2cc(S(=O)(=O)Nc3cnccn3)ccc21 [Example 876, 1-(3′-chloro-5′-fluoro-4-methoxy-3-biphenylyl)-2-oxo-N-2-pyrazinyl-1,2-dihydro-6-quinolinesulfonamide]
21 | COc1ccc(-c2ccc(F)c(C)c2)cc1-n1c(=O)ccc2cc(S(=O)(=O)Nc3ccon3)ccc21 [Example 878, 1-(4′-fluoro-4-methoxy-3′-methyl-3-biphenylyl)-N-3-isoxazolyl-2-oxo-1,2-dihydro-6-quinolinesulfonamide]
32 | COc1ccc(-c2cc(Cl)ccc2F)cc1-n1c(=O)ccc2cc(S(=O)(=O)Nc3ccon3)ccc21 [Example 880, 1-(5′-chloro-2′-fluoro-4-methoxy-3-biphenylyl)-N-3-isoxazolyl-2-oxo-1,2-dihydro-6-quinolinesulfonamide]
35 | COc1ccc(-c2ccc(OC)c(-n3c(=O)ccc4cc(S(=O)(=O)Nc5ccon5)ccc43)c2)cc1Cl [Example 884, 1-(3′-chloro-4,4′-dimethoxy-3-biphenylyl)-N-3-isoxazolyl-2-oxo-1,2-dihydro-6-quinolinesulfonamide]
